Measurements reported in US10517964B2, “Optical imaging probes, optical imaging systems, methods of optical imaging, and methods of using optical imaging probes” (priority 2011, dated 2019).

How the values were obtained:
[1] = radioactive OI and microPET of bone-seeking probe; format: in vivo, mice; settings: 0.5-2 h
Method: Bone-seeking PET probe, Na^18F, was also used for radioactive OI and microPET imaging studies to further confirm the use of optical signals from radioactive probes for molecular imaging.
(§1) Radioactive optical imaging: In vivo radioactive OI was also performed with an IVIS Spectrum system. Wavelength-resolved spectral imaging was carried out suing a 18 narrow bands emission filters set (490-850 nm). Animals were placed in a light-tight chamber under isofluorane anesthesia. Each acquisition, with or without filters, took 1-5 min for all studies. Images were acquired and analyzed using Living Image 3.0 software (Caliper life sciences, Hopkinton, Mass.). Quantification of Radioactive OI images was corrected in accordance with radionuclides' respective physical decay properties. Optical signal was normalized to photons per second per centimeter square per steradian (p/s/cm^2/sr). Identical setting was used for in vitro Radioactive OI. For in vivo imaging study, normal mice or mice bearing either C6-fluc or PC3 (n=3 for each imaging probe) were injected via tail vein with Na^18F (5.3-5.7 MBq, 140-150 μCi), [^18F]FDG (10.4-11.3 MBq, 280-305 μCi), Na^131I (2.2-2.3 MBq, 59-61 μCi), ^90YCl3 (1.8-2.0 MBq, 48-54 μCi) or ^90Y-RGD-BBN (2.6-3.3 MBq, 70-90 μCi). For [^18F]FDG imaging study, the mice were fasted overnight prior to the experiment.

[2] = radioactive OI of 90YCl3 in mice; format: in vivo; settings: various time points p.i.
Method: Mice injected with ^90YCl3 (1.8-2.0 MBq each) were also imaged by an IVIS Spectrum system at different time points p.i. (FIG. 1.6e). […] The results obtained by the radioactive OI also agreed well with the previously reports which measured the in vivo behavior of ^90YCl3 by biodistribution study^21.
as §1, with “For [^18F]FDG imaging study, the mice were fasted overnight prior to the experiment.” left out

[3] = thyroid radioactive OI and SPECT/CT; format: in vivo, mice; settings: quantitative analysis of OI, 0.5-24 h
Description: Iodine ion can accumulate in the thyroid, and Na^123/131I has been widely used for imaging thyroid function, treating thyroid cancer and sodium iodide symporter^15-17. Therefore, we then tested the SPECT probe, Na^131I, for thyroid radioactive OI. […] High imaging signal was found in the thyroid and bladder at earlier time points postinjection (p.i.). […] At the end of OI study, the mice were sacrificed and the neck and chest areas were opened to expose the internal organs. The thyroid can be easily differentiated (FIG. 1.5d).
as §1, with “For in vivo imaging study, normal mice or mice bearing either C6-fluc or PC3 (n=3 for each imaging probe) were injected via tail vein with Na^18F (5.3-5.7 MBq, 140-150 μCi), [^18F]FDG (10.4-11.3 MBq, 280-305 μCi), Na^131I (2.2-2.3 MBq, 59-61 μCi), ^90YCl3 (1.8-2.0 MBq, 48-54 μCi) or ^90Y-RGD-BBN (2.6-3.3 MBq, 70-90 μCi). For [^18F]FDG imaging study, the mice were fasted overnight prior to the experiment.” left out

[4] = tested on: C6-tk cells (C6 rat glioma stably transfected with HSV-sr39tk); assay: in vitro [18F]FHBG cell uptake, measured by OI and gamma counting; format: cell-based; settings: 37° C., 15-120 min
Description: This is mainly attributed to the ability of radioactive materials to produce low energy visible photons (1.2-3.1 eV, 400-1000 nm) associated with Cerenkov or Bremsstrahlung radiation (8-11). In this research study, we further evaluated the feasibility of using OI to monitor the nuclear reporter gene/reporter probe systems. HSV1-tk and [^18F]FHBG was thus chosen as a model system in this study. The C6 rat glioma cell line stably transfected with HSV-sr39tk plasmids (C6-tk) (12) was used, and the in vitro [^18F]FHBG uptakes in C6-tk cells were measured by both an IVIS optical imaging system (Caliper) and a gamma counter (Perkin Elmer). Finally, we performed in vivo imaging studies of the reporter gene/reporter probe using both OI and PET followed by a biodistribution study.
The in vitro [^18F]FHBG cell uptake study was performed as previously described with minor modifications (12). Briefly, C6-tk cells were seeded into 12-well plates at a density of 5×10^5 cells per well 12 h prior to the experiment. The C6 cell line without transfection was used as a negative control. […] Then the radioactivity of the cell suspension was measured in a gamma counter (Packard, Meriden, Conn.). The in vitro cell uptake results were expressed as the percentage of the applied activity with decay correction [see FIG. 2.1(b)]. […]

[5] = tested on: C6-tk tumors (HSV1-tk reporter gene); assay: in vivo OI and PET imaging of mice bearing C6-tk and C6 tumors; settings: for tumor to normal tissue (T/N) ratio: n=6
Method: All animal studies were carried out in compliance with federal and local institutional rules for the conduct of animal experimentation. Mice bearing two tumors (C6-tk and C6) were then used for in vivo studies. The C6-tk (left) and C6 (right) cells were injected contra-laterally in the dorsal shoulder region of each mouse (2×10^6 cells/mouse; athymic nude mice were purchased from Charles River Laboratories, n=6). Approximately 10 days later, when tumor size reached about 1-1.5 cm in diameter, small animal PET and OI were performed using the mice and the PET probe [^18F]FHBG. Images at 1 h and 2 h were obtained by both OI and PET. Results are shown by average radiance (photon/second/cm^2/str) for OI and percentage of injected dose per gram (% ID/g) for PET based on the method previously described (13). […] The strong signals in the lower part of the mouse body [FIG. 2.2 (a)] are due to the presence of the radioactivity in the bladder. […] At 2 h post-injection, with the elimination of [^18F]FHBG, only C6-tk tumors can be clearly visualized in both imaging modalities (see FIG. 2.2).

[6] = biodistribution study by OI of organs and gamma counting; format: in vivo, mice
Method: To further compare the imaging results obtained from OI and PET, biodistribution studies were conducted. Mice were sacrificed and different organs were collected at 1 h post-injection of [^18F]FHBG. OI images were obtained for these radioactive organs and quantification analysis of optical images was performed using Living Image software version 3.1 [see FIG. 2.3(a)]. Meanwhile, the radioactivity of the organs was also measured using a gamma counter after weighing, and the radioactivity uptake in the tumor and normal tissues was calculated and expressed as a percentage of the injected radioactive dose per gram of tissue (% ID/g) [see FIG. 2.3(b)].
The ratio of kidney to tumor uptake of [^18F]FHBG at 1 h was also calculated to be 2.3 vs. 1.4, for gamma counting vs. OI quantification, respectively. This discrepancy could mainly originate from the diverse optical properties of different tissues, which ultimately affects light imaging and quantification. Compared with the C6-tk tumor, the kidney contains more hemoglobin that absorbs more optical photons. Moreover, unlike high energy gamma rays, the low energy photons have very weak tissue penetrability. Light sources deeper in the tissue contribute less for the total optical signals than those closer to the surface. Therefore the kidney/tumor ratio measured by OI is lower than that obtained by gamma counting. Overall, PET has a better quantitative capability than OI. However, radioactive OI can still serve as a qualitative or semiquantitative research tool for radioactive reporter probe studies. The radioactive OI signals also have a uniquely wide wavelength of emission spectrum (9). The emissions in the near infra-red range are especially favorable for OI in living subjects. In comparison with current reporter gene imaging using BLI probes, radioactive reporter probes may offer a better option for 3D OI reconstruction.

[7] = tested on: C6 cell line without transfection; assay: in vitro [18F]FHBG cell uptake, negative control cells; format: cell-based, rat; settings: non transfected C6 cells, 37° C., 15-120 min
Method: The in vitro [^18F]FHBG cell uptake study was performed as previously described with minor modifications (12). Briefly, C6-tk cells were seeded into 12-well plates at a density of 5×10^5 cells per well 12 h prior to the experiment. The C6 cell line without transfection was used as a negative control. The cells were then incubated with [^18F]FHBG ([…], 3 μCi/well) at 37° C. for 15, 30, 60 and 120 min. Tumor cells were washed 3 times with chilled phosphate buffered saline (PBS) and harvested with 0.25% trypsin/0.02% ethylenediaminetetraacetic acid (EDTA) (Invitrogen). The cell suspensions were transferred to a 96-well flat bottom black plate (Nunc) and imaged by an IVIS 200 system (Caliper). Luminescent images were taken without a filter [see FIG. 2.1(a)]. The exposure time was 5 min. Then the radioactivity of the cell suspension was measured in a gamma counter (Packard, Meriden, Conn.). The in vitro cell uptake results were expressed as the percentage of the applied activity with decay correction [see FIG. 2.1(b)]. Experiments were performed twice with triplicate samples for each time point. […] More importantly, an excellent correlation has been obtained between OI and gamma counting results [see FIG. 2.1(c), r^2>0.95]. These findings lay the foundation for further in vivo studies to validate the feasibility of using OI for monitoring the nuclear reporter gene system.

[8] = OI, 1 h after tail vein injection

## [18F-].[Na+] [Na^18F]
[1]
  distribution of imaging signal: High and consistence imaging signals were observed in the bone structures

## [Cl][90Y]([Cl])[Cl] [^90YCl3]
[2]
  tissue accumulation: accumulated in the liver as well as in the bone (femur)

## [131I-].[Na+] [Na^131I]
[3]
  thyroid uptake: accumulated and maintained in the thyroid

## Nc1nc2c(ncn2CCC(CO)C[18F])c(=O)[nH]1 (stereo not drawn) [[^18F]FHBG, 9-(4-^18F-fluoro-3-[hydroxymethyl]butyl)guanine]
[4]
  cell uptake of [18F]FHBG: rapid and high uptake
[5]; [8]
  tracer uptake in C6-tk tumors: C6-tk tumors can be clearly delineated
  tracer uptake in control C6 tumors: minimum tracer uptakes
[5]; OI, 1 h post-injection
  tumor to normal tissue (T/N) ratio: 2.6±0.5
[5]; OI, 2 h post-injection
  tumor to normal tissue (T/N) ratio: 5.1±1.1
[5]; PET, 1 h post-injection
  tumor to normal tissue (T/N) ratio: 43.2±8.4
[5]; PET, 2 h post-injection
  tumor to normal tissue (T/N) ratio: 143.0±14.8
[6]; 1 h, OI quantification
  ratio of kidney to tumor uptake: 1.4
[6]; 1 h, gamma counting
  ratio of kidney to tumor uptake: 2.3
[6]; 1 h post-injection, excised organs
  organs visible by optical imaging (biodistribution): the C6-tk tumor, the kidney, and the intestine were clearly visible
[6]; kidney vs intestine signal, 1 h
  clearance route: mainly through urinary excretion
[7]
  cell uptake of [18F]FHBG: very low cell uptake
